Assay results published in ChEMBL document CHEMBL1201862, “PubChem BioAssay data set” (2004).
Active and inactive are the calls of the source. Unless noted, the calls are words filed in the database; no cut-off is given here.

Experiments:
[1] = HEK293 Cytotoxicity Assay Measured in Cell-Based System Using Plate Reader - 7071-01_Inhibitor_Dose_CherryPick_Activity_Set2.; type: functional
[2] = test system: HeLa; assay: viability loss in HeLa cells – cell-based, ATP luminescence, cherry-pick samples, cytotoxicity control, dose response (AID 687004); type: functional; conditions: Homo sapiens
[3] = test system: HEK293; assay: viability loss in HEK293T cells – cell-based, ATP luminescence, cherry-pick samples, cytotoxicity control, dose response (AID 687005); type: functional; conditions: Homo sapiens;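 further: cells exposed to compound for 48 hours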
[4] = blockers of FN fibrillogenesis by fibroblasts – AH1F cells, Alexa488-FN fluorescence, cherry-picks, dose response (AID 1035475); type: functional, cell-based
[5] = biological target: T1, Caspase-6 (Homo sapiens, UniProt P55212); assay: inhibition of CASP6 peptide cleavage – biochemical, VEID-R110 fluorescence, dry powder retest, dose response (AID 743332)
T1 sequence (P55212 whole entry): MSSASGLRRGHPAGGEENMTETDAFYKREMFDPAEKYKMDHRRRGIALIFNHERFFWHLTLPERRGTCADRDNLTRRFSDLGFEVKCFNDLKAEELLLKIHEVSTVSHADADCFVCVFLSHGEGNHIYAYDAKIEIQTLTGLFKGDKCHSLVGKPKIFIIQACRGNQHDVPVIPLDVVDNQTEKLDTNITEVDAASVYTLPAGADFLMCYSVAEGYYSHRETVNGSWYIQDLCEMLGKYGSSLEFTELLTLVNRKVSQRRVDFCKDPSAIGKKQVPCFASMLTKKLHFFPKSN

[6] = disruptors of Keap1 Kelch-Nrf2 peptide binding – biochemical, fluorescence polarization, dry powder, set 2, dose response (AID 651801)
[7] = disruptors of Keap1 Kelch-Nrf2 peptide binding – biochemical, fluorescence polarization, dry powder samples, dose response (AID 651798)
[8] = biological target: Potassium channel subfamily K member 9 (Homo sapiens, UniProt Q9NPC2); assay: KCNK9 flux blockade, concentration-response – cell-based, FluxOR thallium flux, selectivity assay for TASK1 inhibitor project, SAR follow-up (AID 652211); type: functional;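 further: potency is for inhibitors of the channel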
Potassium channel subfamily K member 9, sequence (Q9NPC2 whole entry): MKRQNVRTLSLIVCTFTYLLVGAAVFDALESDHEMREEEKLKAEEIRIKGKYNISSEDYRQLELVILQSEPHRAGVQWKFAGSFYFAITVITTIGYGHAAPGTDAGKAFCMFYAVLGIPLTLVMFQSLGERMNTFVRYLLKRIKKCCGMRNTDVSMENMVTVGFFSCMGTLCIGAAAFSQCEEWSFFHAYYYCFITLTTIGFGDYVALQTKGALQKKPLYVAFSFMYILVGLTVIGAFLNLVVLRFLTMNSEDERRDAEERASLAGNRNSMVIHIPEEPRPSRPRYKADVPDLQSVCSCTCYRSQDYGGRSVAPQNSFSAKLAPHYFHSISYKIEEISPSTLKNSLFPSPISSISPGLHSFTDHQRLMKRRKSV

[9] = biological target: Potassium channel subfamily K member 3 (Homo sapiens, UniProt O14649); assay: inhibition of human KCNK3 channel flux – CHO cells, FluxOR thallium flux, SAR follow-up (AID 652212); type: functional
Potassium channel subfamily K member 3, sequence (O14649 whole entry): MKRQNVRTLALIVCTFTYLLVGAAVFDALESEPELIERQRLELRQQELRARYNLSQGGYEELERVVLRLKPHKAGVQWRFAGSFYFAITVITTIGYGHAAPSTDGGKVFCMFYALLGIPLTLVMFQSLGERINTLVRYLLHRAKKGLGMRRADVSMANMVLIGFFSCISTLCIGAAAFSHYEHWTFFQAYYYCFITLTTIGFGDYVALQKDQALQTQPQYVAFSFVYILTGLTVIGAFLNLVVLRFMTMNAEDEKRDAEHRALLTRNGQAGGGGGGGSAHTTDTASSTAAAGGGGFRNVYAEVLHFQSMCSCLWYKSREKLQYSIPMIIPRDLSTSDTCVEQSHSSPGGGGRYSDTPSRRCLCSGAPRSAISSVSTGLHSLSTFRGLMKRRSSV

[10] = Cytotoxicity screening for potential Inhibitors of Bacterial Capsule Biogenesis (4).; type: functional
[11] = disruptors of Keap1/Nrf2 protein interaction – biochemical, fluorescence polarization, dry powder, set 3, dose response (AID 651806)
[12] = biological target: Delta-type opioid receptor (Homo sapiens, UniProt P41143); assay: Late-stage results from the probe development effort to identify antagonists of OPRK1: fluorescence-based cell-based dose response OPRD1 counterscreen, Set 2.; type: functional
Delta-type opioid receptor, sequence (P41143 whole entry): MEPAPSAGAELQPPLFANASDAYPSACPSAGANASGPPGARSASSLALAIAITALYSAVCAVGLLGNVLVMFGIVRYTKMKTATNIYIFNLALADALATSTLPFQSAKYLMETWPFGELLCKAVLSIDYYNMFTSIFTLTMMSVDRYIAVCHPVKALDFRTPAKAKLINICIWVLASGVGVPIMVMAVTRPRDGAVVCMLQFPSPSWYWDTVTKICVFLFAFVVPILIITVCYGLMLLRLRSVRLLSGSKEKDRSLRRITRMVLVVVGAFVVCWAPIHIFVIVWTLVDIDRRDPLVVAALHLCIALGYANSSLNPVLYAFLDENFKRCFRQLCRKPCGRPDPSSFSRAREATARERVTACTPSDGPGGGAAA

[13] = biological target: Sphingosine 1-phosphate receptor 1 (Homo sapiens, UniProt P21453); assay: Late-stage counterscreen for antagonists of kappa opioid receptor 1 (OPRK1): fluorescence-based cell-based dose response assay to identify antagonists of Sphingosine 1-Phosphate Receptor 1 (S1P1).; type: functional
Sphingosine 1-phosphate receptor 1, sequence (P21453 whole entry): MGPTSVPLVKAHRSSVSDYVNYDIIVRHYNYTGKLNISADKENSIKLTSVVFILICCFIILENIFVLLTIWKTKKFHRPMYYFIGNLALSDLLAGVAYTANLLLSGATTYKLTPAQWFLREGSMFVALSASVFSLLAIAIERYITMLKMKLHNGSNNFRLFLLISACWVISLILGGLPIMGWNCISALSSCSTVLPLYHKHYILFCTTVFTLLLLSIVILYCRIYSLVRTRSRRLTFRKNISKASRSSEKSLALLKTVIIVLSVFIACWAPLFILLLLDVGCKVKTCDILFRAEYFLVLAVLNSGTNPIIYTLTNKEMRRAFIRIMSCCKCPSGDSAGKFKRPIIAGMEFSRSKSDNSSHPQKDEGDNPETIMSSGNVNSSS

[14] = biological target: Kappa-type opioid receptor (Homo sapiens, UniProt P41145); assay: Late-stage fluorescence-based cell-based dose response assay for antagonists of kappa opioid receptor 1 (OPRK1).; type: functional
Kappa-type opioid receptor, sequence (P41145 whole entry): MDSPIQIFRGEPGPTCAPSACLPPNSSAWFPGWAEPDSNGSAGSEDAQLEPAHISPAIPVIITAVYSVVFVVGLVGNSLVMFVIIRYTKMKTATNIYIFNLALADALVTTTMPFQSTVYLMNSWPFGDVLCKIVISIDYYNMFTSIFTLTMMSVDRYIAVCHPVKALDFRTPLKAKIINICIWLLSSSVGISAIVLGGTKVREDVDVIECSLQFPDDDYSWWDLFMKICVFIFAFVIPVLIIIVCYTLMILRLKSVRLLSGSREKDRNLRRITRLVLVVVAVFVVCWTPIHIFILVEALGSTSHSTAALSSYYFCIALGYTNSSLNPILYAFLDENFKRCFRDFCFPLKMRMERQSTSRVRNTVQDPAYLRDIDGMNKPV

[15] = biological target: Mu-type opioid receptor (Homo sapiens, UniProt P35372); assay: Late-stage results from the probe development effort to identify antagonists of OPRK1: luminescence-based cell-based dose response OPRM1 counterscreen, Set 2.; type: functional
Mu-type opioid receptor, sequence (P35372 whole entry): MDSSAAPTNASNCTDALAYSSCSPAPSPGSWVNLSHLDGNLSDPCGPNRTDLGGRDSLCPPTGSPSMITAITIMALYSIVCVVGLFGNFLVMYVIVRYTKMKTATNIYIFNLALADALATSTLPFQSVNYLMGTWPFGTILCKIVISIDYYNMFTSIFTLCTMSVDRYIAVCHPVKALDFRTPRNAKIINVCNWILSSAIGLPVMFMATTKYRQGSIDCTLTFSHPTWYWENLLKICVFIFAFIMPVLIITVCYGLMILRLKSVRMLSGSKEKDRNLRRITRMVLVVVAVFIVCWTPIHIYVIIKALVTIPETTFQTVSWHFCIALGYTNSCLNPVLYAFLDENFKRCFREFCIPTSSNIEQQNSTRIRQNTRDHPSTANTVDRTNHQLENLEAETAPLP

[16] = biological target: Metabotropic glutamate receptor 3 (Rattus norvegicus, UniProt P31422); assay: inhibition of rat mGlu3 glutamate signaling – HEK/GIRK cells, thallium flux, dose response (AID 651839); type: functional
Metabotropic glutamate receptor 3, sequence (P31422 whole entry): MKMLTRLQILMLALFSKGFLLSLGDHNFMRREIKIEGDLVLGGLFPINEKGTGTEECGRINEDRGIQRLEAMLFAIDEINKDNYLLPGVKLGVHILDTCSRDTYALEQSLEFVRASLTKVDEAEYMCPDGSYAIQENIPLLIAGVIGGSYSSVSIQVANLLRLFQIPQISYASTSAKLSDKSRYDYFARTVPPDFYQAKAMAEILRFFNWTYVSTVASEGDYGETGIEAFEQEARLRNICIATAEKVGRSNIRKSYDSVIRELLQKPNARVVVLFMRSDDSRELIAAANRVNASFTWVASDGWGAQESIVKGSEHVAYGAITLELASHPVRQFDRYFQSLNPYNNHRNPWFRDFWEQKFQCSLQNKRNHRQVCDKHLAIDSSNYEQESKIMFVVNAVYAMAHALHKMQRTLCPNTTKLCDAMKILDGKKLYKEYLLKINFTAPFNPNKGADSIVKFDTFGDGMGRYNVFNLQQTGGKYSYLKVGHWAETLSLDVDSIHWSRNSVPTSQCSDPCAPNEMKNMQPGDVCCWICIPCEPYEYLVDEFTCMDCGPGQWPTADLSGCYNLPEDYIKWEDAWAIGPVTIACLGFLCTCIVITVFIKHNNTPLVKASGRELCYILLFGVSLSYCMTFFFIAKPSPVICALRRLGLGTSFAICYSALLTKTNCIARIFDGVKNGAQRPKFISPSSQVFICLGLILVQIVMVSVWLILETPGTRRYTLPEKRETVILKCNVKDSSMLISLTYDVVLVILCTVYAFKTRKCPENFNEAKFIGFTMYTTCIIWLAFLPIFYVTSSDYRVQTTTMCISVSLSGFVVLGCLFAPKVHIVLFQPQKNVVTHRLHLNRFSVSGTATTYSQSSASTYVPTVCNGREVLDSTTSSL

[17] = Late stage assay provider results from the probe development effort to identify inhibitors of the Plasmodium falciparum M18 Aspartyl Aminopeptidase (M18AAP): radiolabel-based cell-based dose response assay to identify compounds that inhibit P. falciparum growth in RBCs, Set 2..; type: functional
[18] = viability loss in CEM21 cells – cell-based, plate reader, dry powder, cytotoxicity control, dose response (AID 687026); type: functional
[19] = inhibition of bursicon-driven LGR2 cAMP signaling – cell-based, HEK293, CRE-luciferase reporter, cherry pick, dose response (AID 743342); type: functional
[20] = A549 cell cytotoxicity, dose response, cytotoxicity control, plate reader, cherry-pick, antagonist series (AID 743412); type: functional, cell-based
[21] = CTGF mRNA reduction in DLD1 cells – cell-based, DLD1 colon cancer, RT-qPCR, cherry-pick, dose response (AID 1053122); type: functional; conditions: Cancer cell lines

With `COCCNC(=O)C[C@H]1C=C[C@@H](NS(=O)(=O)c2ccc(C)cc2)[C@H](CO)O1` the AC50 [1] was 23.9 µM (active), the AC50 [2] was 19.9 µM (active) and the AC50 [3] was 23.9 µM (active).
In the case of `N#Cc1ccc(-c2ccc3c(c2)[C@@H]2[C@@H](CCN2S(=O)(=O)c2ccccc2F)[C@H](CO)N3)cc1`, the AC50 [4] is reported as 24.5 µM (active).
For `[O-][n+]1onc2c1CCc1c-2nn(-c2ccccc2)[n+]1[O-]`, the AC50 [5] was 22.9 µM (active).
For `O=C(O)C1CCCCC1C(=O)N1CCc2ccccc2C1CN1C(=O)c2ccccc2S1(=O)=O` (stereo unspecified), the AC50 [6] was 78.9 µM (active) and the AC50 [7] was 71.1 µM (active).
In the case of `CCOc1ccccc1NC(=O)c1cccc(NC(=O)C2CCCCC2)c1`, the IC50 [8] is reported as 1.3 µM (active) and the IC50 [9] is reported as 0.067 µM (active).
In the case of `CC(C)(C)OC(=O)Nc1nc2ccc(C(=O)Nc3ccnc(F)c3)cc2s1`, the CC50 [10] is reported as > 300 µM (inactive).
For `O=C(O)[C@H]1CCCC[C@H]1C(=O)N1CCc2ccccc2[C@H]1CNS(=O)(=O)c1ccc([N+](=O)[O-])cc1`, the AC50 [11] was 88.3 µM (active).
With `COC(=O)c1cc(-c2ccc(OC)cc2)c(-c2ccc(OC)cc2)s1` the IC50 [12] was 19.8 µM (inactive), the IC50 [13] was > 50 µM (inactive) and the IC50 [14] was 1.58 µM (active). The IC50 [15] was > 50 µM (inactive).
In the case of `Cc1cc2cc(C#Cc3ccc(C(=O)N4CCCC(CO)C4)cc3)ccc2o1` (stereo unspecified), the IC50 [16] is reported as 3.91 µM.
In the case of `COc1cc(Br)c(CCNc2ccnc3ccccc23)cc1OC`, the IC50 [17] is reported as 0.45 µM (active).
For `CCCOc1ccc(S(=O)(=O)NCc2ccncc2)c2ccccc12`, the AC50 [18] was > 70 µM (inactive).
With `C[C@H](CO)N1C[C@H](C)[C@H](CN(C)C(=O)Nc2ccc(F)cc2)OCCCC[C@H](C)Oc2ccc(NC(=O)Nc3ccc(F)cc3)cc2C1=O` the AC50 [19] was 16.1 µM (active) and the AC50 [20] was > 47 µM (inactive).
In the case of `COc1ccccc1NC(=O)N1CCCCN2[C@@H](CO)[C@H](c3ccc(-c4cccc(C#N)c4)cc3)[C@@H]2C1`, the AC50 [21] is reported as 0.918 µM (active).
